Source: ChEMBL document CHEMBL1126911, “Synthesis and binding properties of 2-amino-5-phosphono-3-pentenoic acid photoaffinity ligands as probes for the glutamate recognition site of the NMDA receptor” (J Med Chem, 1993)

Columns and labels:
[1] = biological target: Glutamate NMDA receptor; assay: Tested for in vitro binding affinity against NMDA receptor by using [3H]-CGP- 39653 as radioligand in rat forebrain membranes; assay type: cell membranes, Membrane
[2] = biological target: Glutamate NMDA receptor; assay: Tested for in vitro binding affinity against NMDA receptor by using [3H]-CGP- 39653 as radioligand in rat forebrain membranes.; assay type: cell membranes

Row | SMILES | IC50 [1] | IC50 [2]
1 | NC(/C=C(\CCCCCCNC(=O)c1ccccc1)CP(=O)(O)O)C(=O)O (stereo not given) | 106 nM | 
2 | [N-]=[N+]=Nc1ccc(C(=O)NCCCCCC/C(=C\C(N)C(=O)O)CP(=O)(O)O)cc1 (stereo not given) |  | 38 nM
3 | [N-]=[N+]=Nc1ccc(C(=O)NCCCCCC/C(=C\C(N)C(=O)O)CP(=O)(O)O)c(O)c1 (stereo not given) |  | 36 nM

Further lines, results first:

Row | IC50 [1] | IC50 [2] | SMILES
4 |  | 42 nM | NCCCCCC/C(=C\C(N)C(=O)O)CP(=O)(O)O (stereo not given)
5 |  | 34 nM | [N-]=[N+]=Nc1ccc(C(=O)NCCCCCC/C(=C\C(N)C(=O)O)CP(=O)(O)O)c(O)c1I (stereo not given)
